# Data as given in patent publication US12209079B2 (GENERAL INCORPORATED ASSOCIATION PHARMA VALLEY PROJECT …, priority 2017, dated 2025).
# Where a name gives a salt, the structure may show the parent alone.
# Columns and labels:
# TDO in A172 cells = target: T1, TDO in A172 cells (Homo sapiens, UniProt P48775); test: TDO cell-based assay, kynurenine production in A172 cells; conditions: A 172; final concentration of the compound 10 μM; rate relative to culture without compound
# T1 construct: endogenous in cells; host or cells: A172 cells
# Experimental: A172 cells (3.0×10^5 cells/mL) suspended in a culture medium for assay (PRMI-1640; Wako 186-02155, 5% FBS, 50 units/mL penicillin, and 50 μg/mL streptomycin) were inoculated at 100 μL/well to a transparent 96-well flat-bottomed plate and cultured at 37° C. for 24 hours in 5% CO2. The culture medium was removed from the cells thus cultured. A culture medium for assay was added at 80 μL/well, and further, a compound solution was added at 10 μL/well. The cells were preincubated for 1 hour. Then, the whole amount was brought to 100 μL/well by the addition of 10 μL/well of a 5 mM aqueous tryptophan solution (final concentration of L-tryptophan: 524 μM), and the cells were cultured for 24 hours. After the culture, absorbance was measured at 460 nm using SpectraMax MSSK (Molecular Devices, LLC) (background measurement). After the measurement, a kynurenine quantification reagent (prepared with 7% [v/v] aqueous trichloroacetic acid solution and a solution of 2% [w/v] p-dimethylbenzaldehyde in acetic acid at 2:5 [v/v]) was added at 200 μL/well and reacted for 5 minutes, followed by the measurement of absorbance at 460 nm again. The rate of kynurenine production was calculated according to the following expression. Rate of kynurenine production (%) for each compound in the case of using A172 cells={(Absorbance at 460 nm in the tryptophan-containing culture medium comprising the A172 cells and the solution of the compound of the present invention−Absorbance of the background)/(Absorbance at 460 nm in the tryptophan-containing culture medium without the addition of the compound solution−Absorbance of the background)}×100
# [1] = target: rhTDO (recombinant human TDO) (Homo sapiens, UniProt P48775); test: Enzyme assay using rhTDO (rate of kynurenine production); assay type: biochemical; conditions: 2 h; final concentration of the compound 10 μM; rate relative to reaction without compound; read-out: rhTDO-mediated kynurenine production
# Experimental: 4 μL of a compound solution was added to 176 μL of a rhTDO reaction solution (0.5 M potassium phosphate buffer (20 μL), 0.2 M ascorbic acid (20 μL), 0.5 mM methylene blue (4 μL), 10 mg/mL catalase (2 μL), H2O (128 μL), and rhTDO (2 μL)). The mixture was pipetted and preincubated at 37° C. for 10 minutes. Then, the whole amount was brought to 200 μL by the addition of 20 μL of a 20 mM aqueous tryptophan solution, and the mixture was pipetted again and reacted at 37° C. for 120 minutes. After the reaction, the enzymatic reaction was terminated by the addition of 40 μL of a 30% [v/v] aqueous trichloroacetic acid solution to the reaction solution. The mixture was well stirred by pipetting and heated at 50° C. for 15 minutes so that N-formylkynurenine was converted to kynurenine. The reaction solution thus heated was centrifuged (15,000 rpm, 5 min, 24° C.), and 150 μL of the supernatant was transferred to a transparent 96-well flat-bottomed plate, followed by the measurement of absorbance at 490 nm using SpectraMax M5 SK (background measurement). After the measurement, a solution of 2% [w/v] p-dimethylbenzaldehyde in acetic acid was added at 150 μL/well and reacted for 5 minutes, followed by the measurement of absorbance at 490 nm again. The rate of kynurenine production was calculated according to the following expression. Rate of kynurenine production (%) for each compound in the case of using rhTDO={(Absorbance at 490 nm in the tryptophan-containing aqueous solution comprising rhTDO and the compound of the present invention−Absorbance of the background)/(Absorbance at 490 nm in the tryptophan-containing aqueous solution without the addition of the compound solution−Absorbance of the background)}×100 IDO Cell-Based Assay Protocol
# [2] = target: rhIDO (recombinant human IDO) (Homo sapiens, UniProt P14902); test: Enzyme assay using rhIDO (rate of kynurenine production); assay type: biochemical; conditions: 2 h; final concentration of the compound 10 μM; rate relative to reaction without compound; read-out: rhIDO-mediated kynurenine production
# Experimental: Enzyme Assay Protocol Using rhIDO (Recombinant Human IDO)
# 4 μL of a compound solution was added to 176 μL of a rhIDO reaction solution (0.5 M potassium phosphate buffer (20 μL), 0.2 M ascorbic acid (20 μL), 0.5 mM methylene blue (4 μL), 10 mg/mL catalase (2 μL), H2O (128 μL), and rhIDO (2 μL)). The mixture was pipetted and preincubated at 37° C. for 10 minutes. Then, the whole amount was brought to 200 μL by the addition of 20 μL of a 2 mM aqueous tryptophan solution, and the mixture was pipetted again and reacted at 37° C. for 120 minutes. After the reaction, the enzymatic reaction was terminated by the addition of 40 μL of a 30% [v/v] aqueous trichloroacetic acid solution to the reaction solution. The mixture was well stirred by pipetting and heated at 50° C. for 15 minutes so that N-formylkynurenine was converted to kynurenine. The reaction solution thus heated was centrifuged (15,000 rpm, 5 min, 24° C.), and 150 μL of the supernatant was transferred to a transparent 96-well flat-bottomed plate, followed by the measurement of absorbance at 490 nm using SpectraMax MSSK (background measurement). After the measurement, a solution of 2% [w/v] p-dimethylbenzaldehyde in acetic acid was added at 150 μL/well and reacted for 5 minutes, followed by the measurement of absorbance at 490 nm again. The rate of kynurenine production was calculated according to the following expression. Rate of kynurenine production (%) for each compound in the case of using rhIDO={(Absorbance at 490 nm in the tryptophan-containing aqueous solution comprising rhIDO and the compound of the present invention−Absorbance of the background)/(Absorbance at 490 nm in the tryptophan-containing aqueous solution without the addition of the compound solution−Absorbance of the background)}×100 Enzyme Assay Protocol Using rhTDO (Recombinant Human TDO)
# IDO in A431 cells = target: T2, IDO in A431 cells (Homo sapiens, UniProt P14902); test: IDO cell-based assay, kynurenine production in IFN-γ stimulated A431 cells; conditions: A-431, 24 h; final concentration of the compound 10 μM; rate relative to culture without compound
# T2 construct: endogenous in cells; host or cells: A431 cells, IFN-γ stimulated
# Experimental: A431 cells (3.0×10^5 cells/mL) suspended in a culture medium for assay (D-MEM; Wako 040-30095, 5% FBS, 50 units/mL penicillin, 50 μg/mL streptomycin, and 2 mM L-glutamine) were inoculated at 100 μL/well to a transparent 96-well flat-bottomed plate and cultured at 37° C. for 24 hours in 5% CO2. The culture medium was removed from the cells thus cultured. A tryptophan-containing culture medium (culture medium for assay supplemented with 178 μM L-tryptophan) was added at 80 μL/well, and further, a compound solution was added at 10 μL/well. The cells were preincubated for 1 hour. Then, the whole amount was brought to 100 μL/well by the addition of 10 μL/well of IFN-γ diluted into 100 ng/mL with a tryptophan-containing culture medium, and the cells were cultured for 24 hours. After the culture, absorbance was measured at 460 nm using SpectraMax MSSK (Molecular Devices, LLC) (background measurement). After the measurement, a kynurenine quantification reagent (prepared with 7% [v/v] aqueous trichloroacetic acid solution and a solution of 2% [w/v] p-dimethylbenzaldehyde in acetic acid at 2:5 [v/v]) was added at 200 μL/well and reacted for 5 minutes, followed by the measurement of absorbance at 460 nm again. The rate of kynurenine production was calculated according to the following expression. Rate of kynurenine production (%) for each compound in the case of using A431 cells={(Absorbance at 460 nm in the tryptophan-containing culture medium comprising the A431 cells and the solution of the compound of the present invention−Absorbance of the background)/(Absorbance at 460 nm in the tryptophan-containing culture medium without the addition of the compound solution−Absorbance of the background)}×100 TDO Cell-Based Assay Protocol
# T2 sequence (P14902 whole entry): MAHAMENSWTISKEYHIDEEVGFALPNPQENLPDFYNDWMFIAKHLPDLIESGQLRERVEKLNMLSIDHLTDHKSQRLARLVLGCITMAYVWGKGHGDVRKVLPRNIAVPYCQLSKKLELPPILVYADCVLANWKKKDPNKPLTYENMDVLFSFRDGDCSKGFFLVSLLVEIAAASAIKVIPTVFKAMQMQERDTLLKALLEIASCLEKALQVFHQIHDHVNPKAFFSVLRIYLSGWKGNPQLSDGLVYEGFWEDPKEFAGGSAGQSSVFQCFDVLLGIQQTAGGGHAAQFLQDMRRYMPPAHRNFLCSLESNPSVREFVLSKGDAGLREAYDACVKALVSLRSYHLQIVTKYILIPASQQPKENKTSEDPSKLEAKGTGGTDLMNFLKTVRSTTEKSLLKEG
# Chain of rhIDO (recombinant human IDO) (P14902 whole entry): as above
# Chain of rhTDO (recombinant human TDO) (P48775 whole entry): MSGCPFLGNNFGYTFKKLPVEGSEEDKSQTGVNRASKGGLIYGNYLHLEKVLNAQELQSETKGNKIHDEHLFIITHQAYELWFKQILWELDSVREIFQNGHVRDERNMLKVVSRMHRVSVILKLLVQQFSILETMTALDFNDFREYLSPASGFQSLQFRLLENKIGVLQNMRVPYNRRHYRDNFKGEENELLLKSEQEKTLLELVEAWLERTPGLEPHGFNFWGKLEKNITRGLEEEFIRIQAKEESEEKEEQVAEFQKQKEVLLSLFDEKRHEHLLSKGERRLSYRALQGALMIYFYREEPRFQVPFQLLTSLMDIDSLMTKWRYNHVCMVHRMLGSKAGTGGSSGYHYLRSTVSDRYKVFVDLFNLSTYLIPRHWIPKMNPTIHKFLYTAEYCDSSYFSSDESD
# T1 sequence (P48775 whole entry): as above
Structure (SMILES),remaining activity at 10 µM (TDO in A172 cells) [%],remaining activity at 10 µM [1] [%],remaining activity at 10 µM [2] [%],remaining activity at 10 µM (IDO in A431 cells) [%]
"Clc1ccc(CCN2CN=C(SCc3ccccc3CSC3=NCN(CCc4ccc(Cl)cc4Cl)CN3)NC2)c(Cl)c1 [Compound 21, 1,2-bis(((5-(2,4-dichlorophenethyl)-1,4,5,6-tetrahydro-1,3,5-triazin-2-yl)thio)methyl)benzene]",-1,54,30,6
"N=C(N)SCc1cccc(F)c1CSC(=N)N [Compound 13, (3-fluoro-1,2-phenylene)bis(methylene) dicarbamimidothioate dihydrobromide]",42,9,15,32
"N=C(N)[Se]Cc1nc2ccccc2nc1C[Se]C(=N)N [Compound 112, Quinoxaline-2,3-diylbis(methylene) dicarbamimidoselenoate dihydrobromide]",5,90,94,-2
"Clc1ccccc1CCN1CN=C(SCc2ccc(Br)cc2CSC2=NCN(CCc3ccccc3Cl)CN2)NC1 [Compound 53, 6,6′-(((4-Bromo-1,2-phenylene)bis(methylene))bis(sulfanediyl))bis(3-(2-chlorophenethyl)-1,2,3,4-tetrahydro-1,3,5-triazine)]",17,19,16,5
"N#Cc1ccc(CNC(=O)c2cc(Br)ccc2C[Se]C(=N)N)cc1 [Compound 110, 4-Bromo-2-((4-cyanobenzyl)carbamoyl)benzyl carbamimidoselenoate hydrobromide]",38,59,61,13
"N/C(=N\c1ccc(F)cc1F)SCc1ccc(F)cc1CS/C(N)=N/c1ccc(F)cc1F [Compound 130, (4-Fluoro-1,2-phenylene)bis(methylene) (E,E)-bis(N′-(2,4-difluorophenyl)carbamimidothioate) dihydrobromide]",9,8,1,1
"N/C(=N\c1cccc(Cl)c1)SCc1cc(Cl)c(Cl)cc1CS/C(N)=N/c1cccc(Cl)c1 [Compound 125, (4,5-Dichloro-1,2-phenylene)bis(methylene) (E,E)-bis(N′-(3-chlorophenyl)carbamimidothioate) dihydrobromide]",3,7,-2,11
"N=C(N)SCc1ccc(C(F)(F)F)cc1CSC(=N)N [Compound 46, dihydrobromide]",24,14,3,10
"N=C(N)SCc1cc(Br)ccc1C(=O)NCCc1ccc(Cl)cc1 [Compound 78, 5-Bromo-2-((4-chlorophenethyl)carbamoyl)benzyl carbamimidothioate hydrobromide]",56,25,74,112
"Brc1ccc(CS/C(=N/C2CCCCC2)NC2CCCCC2)c(CS/C(=N/C2CCCCC2)NC2CCCCC2)c1 [Compound 57, (4-Bromo-1,2-phenylene)bis(methylene) (E,E)-bis(N,N′-dicyclohexylcarbamimidothioate) dihydrobromide]",12,80,83,3
"N=C(N)SCc1ccccc1CC(=O)NCCc1ccccc1 [Compound 64, 2-(2-Oxo-2-(phenethylamino)ethyl)benzyl carbamimidothioate hydrobromide]",76,42,81,102
"Clc1ccc(CN2CN=C(SCc3ccc(Br)cc3CSC3=NCN(Cc4ccc(Cl)c(Cl)c4)CN3)NC2)cc1Cl [Compound 54, 6,6′-(((4-Bromo-1,2-phenylene)bis(methylene))bis(sulfanediyl))bis(3-(3,4-dichlorobenzyl)-1,2,3,4-tetrahydro-1,3,5-triazine)]",6,14,13,4
"N=C(N)SCc1ccccc1CC(=O)NCCc1ccccc1Cl [Compound 66, 2-(2-((2-chlorophenethyl)amino)-2-oxoethyl)benzyl carbamimidothioate hydrobromide]",74,49,80,101
